Assay results published in the Kinase Knowledgebase extract (Sharma et al. 2016).
pIC50: −log10 of the molar value.

target: PIK3CA (human) (UniProt P42336); assay: Assessment of PI3KCA Kinase Activity
Sequence (P42336 whole entry, looked up): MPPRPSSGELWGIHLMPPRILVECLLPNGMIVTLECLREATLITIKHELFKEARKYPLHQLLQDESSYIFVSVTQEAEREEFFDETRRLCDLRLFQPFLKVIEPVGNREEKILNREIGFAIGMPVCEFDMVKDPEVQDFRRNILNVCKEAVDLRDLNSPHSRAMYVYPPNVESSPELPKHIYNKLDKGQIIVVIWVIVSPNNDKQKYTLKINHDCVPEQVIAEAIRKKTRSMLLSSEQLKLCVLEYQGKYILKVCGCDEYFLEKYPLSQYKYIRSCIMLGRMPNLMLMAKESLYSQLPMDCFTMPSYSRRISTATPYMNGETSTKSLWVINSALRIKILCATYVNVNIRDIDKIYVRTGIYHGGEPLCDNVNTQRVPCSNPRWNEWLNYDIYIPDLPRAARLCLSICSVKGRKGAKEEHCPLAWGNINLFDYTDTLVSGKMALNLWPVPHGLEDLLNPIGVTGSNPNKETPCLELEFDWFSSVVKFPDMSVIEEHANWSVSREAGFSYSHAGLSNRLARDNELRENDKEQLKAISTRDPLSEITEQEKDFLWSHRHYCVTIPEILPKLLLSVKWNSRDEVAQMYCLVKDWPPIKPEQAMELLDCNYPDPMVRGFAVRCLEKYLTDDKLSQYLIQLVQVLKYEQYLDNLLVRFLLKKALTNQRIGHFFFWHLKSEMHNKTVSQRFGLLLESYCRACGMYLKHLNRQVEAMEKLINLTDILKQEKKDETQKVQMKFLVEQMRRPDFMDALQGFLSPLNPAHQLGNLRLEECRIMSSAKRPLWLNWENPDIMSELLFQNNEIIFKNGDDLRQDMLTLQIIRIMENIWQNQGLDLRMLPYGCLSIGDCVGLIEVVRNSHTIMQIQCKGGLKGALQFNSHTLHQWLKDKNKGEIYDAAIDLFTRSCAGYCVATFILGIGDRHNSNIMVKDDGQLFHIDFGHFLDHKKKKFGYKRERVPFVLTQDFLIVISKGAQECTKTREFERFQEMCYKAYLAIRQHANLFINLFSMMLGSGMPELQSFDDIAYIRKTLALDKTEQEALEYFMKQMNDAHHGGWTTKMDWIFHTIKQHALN

pIC50, > 7.00:
COc1cccc(Cl)c1-c1nc(-c2c(C)nn3ccccc23)sc1-c1nc[nH]n1
Cc1nn2ccc(OCCN3CCNC(=O)C3)cc2c1-c1nc(-c2ccccc2)c(-c2nc[nH]n2)s1
N#Cc1c(-c2ccnc(N)c2)sc(-c2nnc[nH]2)c1-c1ccc(Cl)cc1Cl
CC(=O)Nc1cc(-c2nc(-c3ccc(F)cc3F)c(-c3ncc[nH]3)s2)ccn1
CC(C)C(=O)Nc1cc(-c2sc(-c3ncc[nH]3)c(-c3ccc(Cl)cc3Cl)c2C#N)ccn1
